Article PMC5462101 (Future medicinal chemistry, 2015)
Marks after values point to notes of the source that are not given here.

Assays:
[1] = system: carrageenin-induced rat paw edema; assay: Inhibition of carrageenin-induced rat paw edema; type: in vivo, Fisher 344 rats; conditions: rat, 0.01 mmol/kg intraperitoneally, 1 h, mean of two experiments
Description: The incipient pattern of this edema is characterized by the effects of histamine and 5-hydroxytryptamine. After 1 h, reduction of edema in the rat paw achieved by the pteridine 18f was appreciably greater than the reduction induced by the reference compound indomethacin, a nonselective COX-inhibitor and commonly used nonsteroidal anti-inflammatory drug. Thus, 18f and some related pteridines offer significant protection against reactive oxygen species produced in a model of colitis, probably on account of their properties as antioxidants and radical scavengers.
(§1) Fisher 344 rats (150-200 g) were housed in wire-mesh cages, given standard laboratory chow and tap water ad libitum and acclimatized for one week before experiments. Rats were randomly assigned to experimental groups. All in vivo experiments conform to the law for the protection of experimental animals (Republic of Greece) and are registered at the Veterinary Administration of the Republic of Greece in accordance with recognized guidelines on animal experimentation including Directive 2010/63/EU.
Inhibition of carrageenin-induced edema
Edema was induced in the right hind paw of Fisher 344 rats (150-200 g) by intradermal injection of aqueous carrageenin (0.1 mL, 2%). Pregnant females were excluded from the study, but both sexes were used. Each group comprised 6-15 rats which were bred and housed under standard conditions and received a diet of commercial food pellets and water ad libitum during maintenance but were entirely fasted during the experiment period. Each compound (0.01 mmol/kg body weight) was suspended in water to which had been added a few drops of Tween 80 and then the mixture was ground in a mortar prior to being administered intraperitoneally and simultaneously with the carrageenin injection. Rats were euthanized 1 h after injection, and the difference between the weight of the injected and non-injected paws was calculated for each animal. The change in paw weight was compared with that in control animals (treated with water) and the inhibition of the edema was expressed as a percentage (Table 4). […]

[2] = Inhibition of linoleic acid peroxidation (AAPH); conditions: linoleic acid peroxidation initiated by AAPH, 37 °C, pH 7.4
Source text: Azo compounds that generate free radicals through spontaneous thermal decomposition are useful for in vitro studies of free radical production. The water-soluble AAPH has been extensively used as a clean and controllable source of thermally produced alkylperoxyl free radicals. […] Evidently, the presence of 6,7-dimethyl groups on the pteridine ring greatly enhances protection against lipid peroxidation; the nature of the alkyl group and ring size on the 2-substituent has some, but much less, effect. […] The role of lipophilicity (as assessed from calculated clogP values; Table 1) is not clear, but substituent bulk plays a significant role.
Inhibition of linoleic acid peroxidation
Production of conjugated diene hydroperoxide by oxidation of linoleic acid in an aqueous dispersion was monitored at 234 nm. 2,2’-Azobis(2-amidinopropane) dihydrochloride (AAPH) was used as a free radical initiator. This assay was used to follow oxidative changes and to determine the inhibition of the peroxidation of sodium linoleate by each tested compound. A dispersion of sodium linoleate (16 mM, 10 μL) was added to the UV cuvette containing phosphate buffer (0.05 M, 0.93 mL) at pH 7.4 and kept in a thermostat at 37 °C. The oxidation reaction was initiated at 37 °C under air by the addition of AAPH solution (40 mM, 50 μL). Oxidation was carried out in the presence of aliquots (10 μL) of the tested compound. In the assay without antioxidant, lipid oxidation was measured in the presence of DMSO (10 μL). The rate of oxidation at 37 °C was monitored by recording the increase in absorption at 234 nm caused by conjugated diene hydroperoxide formation (Table 2).
(§2) IC50 determinations. OriginPro 8 was used to determine IC50 values from the sigmoidal line fitted to a graph of log[concentration] against the average percentage inhibition from two independent experiments, with at least 6 different concentrations. The SEM is the calculated standard error in the IC50 value of the fitted line.

soybean lipoxygenase = target: T1, soybean lipoxygenase (Glycine max, UniProt P08170); assay: Inhibition of soybean lipoxygenase; type: biochemical; conditions: for inhibition at 100 µM: compound at 100 µM, read-out: Lipoxygenase inhibitory activity (% at 100 µM)
T1 construct: purchased Sigma
T1 sequence (P08170 1-839): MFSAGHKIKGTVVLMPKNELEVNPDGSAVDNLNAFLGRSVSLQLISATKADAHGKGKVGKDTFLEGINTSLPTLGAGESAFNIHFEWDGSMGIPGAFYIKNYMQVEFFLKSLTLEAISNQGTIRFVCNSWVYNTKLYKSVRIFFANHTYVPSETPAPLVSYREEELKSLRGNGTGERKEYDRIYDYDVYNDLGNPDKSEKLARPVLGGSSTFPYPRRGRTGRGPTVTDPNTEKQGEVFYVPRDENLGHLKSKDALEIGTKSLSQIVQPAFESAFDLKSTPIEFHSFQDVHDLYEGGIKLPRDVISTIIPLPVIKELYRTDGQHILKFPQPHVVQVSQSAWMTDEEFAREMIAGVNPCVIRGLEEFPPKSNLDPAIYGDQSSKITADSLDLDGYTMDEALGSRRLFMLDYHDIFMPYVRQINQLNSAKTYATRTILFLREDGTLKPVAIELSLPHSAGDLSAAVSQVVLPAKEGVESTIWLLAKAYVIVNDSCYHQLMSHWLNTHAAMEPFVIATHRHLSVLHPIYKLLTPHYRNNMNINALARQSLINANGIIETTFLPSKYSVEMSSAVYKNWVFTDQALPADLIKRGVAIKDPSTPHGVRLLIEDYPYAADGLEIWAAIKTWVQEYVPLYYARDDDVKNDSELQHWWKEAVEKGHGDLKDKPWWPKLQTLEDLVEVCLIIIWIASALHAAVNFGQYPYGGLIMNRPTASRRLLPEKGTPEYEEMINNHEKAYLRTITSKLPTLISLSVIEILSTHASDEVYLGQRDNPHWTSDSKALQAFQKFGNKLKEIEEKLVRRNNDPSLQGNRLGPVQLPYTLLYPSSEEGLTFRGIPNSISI
Description: The substituted pteridines prepared were assayed for inhibition of soybean lipoxygenase (Table 1) (Supplementary Information). Many studies have used readily obtainable soybean lipoxygenase, which is a homologue of mammalian lipoxygenase and well examined. The availability of soybean LOX and its well-characterized crystal structure led to its use in this study.
Determination of soybean lipoxygenase inhibition
A solution in DMSO of each compound to be tested was incubated at room temperature with sodium linoleate (0.1 mM) and a solution of soybean lipoxygenase (EC 1.13.11.12) (1:9 x 10^4 w/v in saline, 0.2 mL, Sigma). The conversion of sodium linoleate to 13-hydroperoxylinoleic acid was monitored by observation at 234 nm and compared with the value of appropriate standard inhibitor (Table 1).
as §2

[3] = Reducing ability in DPPH assay; conditions: compound 100 μM
Description: Previous work has shown that pterins, their dihydro- and their tetrahydro-derivatives can each be antioxidants or pro-oxidants, depending on the particular conditions. In the present study, several assays were used to assess in vitro antioxidant activity in order to obtain representative information; each method involves the generation of a different radical.
Determination of reducing activity using 1,1-diphenyl-2-picrylhydrazyl radical (DPPH)
To a solution of DPPH in absolute ethanol was added an equal volume of the compound to be tested dissolved in DMSO (20 µL). From a stock solution (10 mM) was prepared a final solution of 100 µM for evaluation of the compounds. The absorbance at 517 nm was recorded after 20 and 60 min at room temperature (Table 2).

rat model of colitis = assay: Acetic acid-induced colitis in the rat; type: in vivo, Fisher 344 rats; conditions: 0.01 mmol/kg intrarectally, 4% acetic acid; for Change in body weight (%): assessed after 48 h; for Score (levels 0–5): colonic damage score, 48 h
Description: LOX has also been associated with inflammation and ulcerative colitis. In the present study, a model for colitis involving intracolonic administration of aqueous 4% acetic acid in the rat was used, leading to acute inflammatory reaction. Treated rats presented partial to diffuse petechial bleeding, single erosion and limited ulceration indicating an overall healing effect of the compounds. Substituted pteridines presenting a satisfactory combination of activities 5a, 18a, 18d and 18f were tested using this in vivo model characterized by diffuse exfoliated mucosa as well as multiple and extended erosion and ulcers of the colon (Table 3). No mortality was encountered.
as §1
Induction of colitis
Rats were anesthetized using pentobarbital (50 mg/kg ip) prior to administration with 1 mL of either vehicle (0.9% w/v saline) or the compound under study at doses 0.01mmol/kg intrarectally via a polyethylene cannula (fitted to a 1 mL syringe) with the tip inserted approximately 8 cm into the anus. Following 30 min pretreatment, 1 ml of 4% acetic acid was introduced into the colon intrarectally and, after exposure for 60 s, the excess fluid was withdrawn. The luminal content was then expelled by instillation of air (10 mL), the ligature was removed and the abdomen was sutured. Both groups of rats were allowed to recover with food and water and the resulting injury was assessed after 48 h. The experiment was conducted using two groups, each containing 3 animals.
Assessment of colonic damage. Rats were weighed, inspected for the presence of diarrhea and sacrificed using diethyl ether. The colons were excised and opened longitudinally, rinsed with cold saline, pinned out and observed under a dissecting microscope. Colonic damage was scored using the system of MacPherson and Pfeiffer: 0 – normal appearance, 1- hyperaemia, 2 – patchy petechial bleeding, 3 – diffuse petechial bleeding, 4 – partial exfoliated mucosa or single erosion or ulceration, 5 – diffuse exfoliated mucosa or multiple erosions or ulceration. The presence or absence of adhesions between the colon and the surrounding tissues was recorded. Scoring of the colonic damage (Table 4) was carried out by an observer unaware of the treatment.

[4] = Competition with DMSO for hydroxyl radicals; conditions: compound at 100 µM, Fe3+/ascorbic acid, DMSO 33 mM
Description: Competition of the novel pteridine derivatives with dimethyl sulfoxide for hydroxyl radicals was measured. […] The majority of the derivatives were excellent scavengers of hydroxyl radicals with activity higher than the reference compound 6-hydroxy-2,5,7,8-tetramethylchroman-2-carboxylic acid (Trolox).
Competition of pteridine derivatives with DMSO for hydroxyl radicals
Hydroxyl radicals generated by the Fe^3+/ascorbic acid system were detected by determination of formaldehyde produced from the oxidation of DMSO, according to the procedure of Nash. The reaction mixture comprised ethylenediaminetetracetic acid (EDTA) (0.1 mM), Fe^3+ (167 μM), DMSO (33 mM) in phosphate buffer (50 mM, pH 7.4), ascorbic acid (10 mM) and the compound to be tested at 100 µM. After incubation at 37 °C for 30 min the mixture was quenched with aqueous trichloroacetic acid (17% w/v) (Table 2) and the percentage competition of the tested compounds with DMSO for hydroxyl radicals was determined (Table 2).

Row | Compound | Reduction of rat paw edema after 1 h (%) [1] | IC50 [2] [µM] | inhibition at 100 µM (soybean lipoxygenase) [%] | RA (%) 100μM 20 min [3] [%] | RA (%) 100μM 60 min [3] [%] | Change in body weight (%) (rat model of colitis) | Score (levels 0–5) (rat model of colitis) | Hydroxyl radicals scavenged (%) [4] [%] | IC50 (soybean lipoxygenase; sodium linoleate 0.1 mM, read-out: Lipoxygenase inhibitory activity (IC50)) [nM]
1 | COc1ccc2c(c1)c(CC(=O)O)c(C)n2C(=O)c1ccc(Cl)cc1 [Indomethacin, indomethacin, reference compound] | 25 ^† % | – | – | – | – | – | – | – | –
2 | CN1CCN(c2nc(NCc3ccccc3)c3nccnc3n2)CC1 [Compound 18a] | – | 22 ± 0.8 | 31.5 ± 0.2 | 2 | 7 | -4.2 | One rat exhibited hyperemia (1); the rest presented petechial bleeding (patchy to diffuse) (2–3) | 91 | –
3 | CN1CCN(c2nc(N)c3nccnc3n2)CC1 [Compound 5a, 2-(4-methylpiperazin-1-yl) pteridin-4-amine] | – | 41 ± 1.1 | 37.5 ± 0.1 | 15 | 14 | -1.1 | – | 98 | –
4 | CN1CCN(c2nc(NCc3cccnc3)c3nccnc3n2)CC1 [Compound 18d] | – | 32.5 ± 1 | – | 10 | 11 | -7 | One rat exhibited patchy petechial bleeding (2), and another diffuse petechial bleeding (3); the rest presented partial exfoliated mucosa or single erosion or ulcer | 95 | 100 ± 10
